Data taken from patent US20250312469A1 (CANGET BIOTEKPHARMA, priority 2024, published 2025).

Assays:
[1] = biological target: T1, ABCG2/BCRP (Homo sapiens, UniProt Q9UNQ0); settings: Caco-2; without and with Ko143
T1 sequence (Q9UNQ0 1-655): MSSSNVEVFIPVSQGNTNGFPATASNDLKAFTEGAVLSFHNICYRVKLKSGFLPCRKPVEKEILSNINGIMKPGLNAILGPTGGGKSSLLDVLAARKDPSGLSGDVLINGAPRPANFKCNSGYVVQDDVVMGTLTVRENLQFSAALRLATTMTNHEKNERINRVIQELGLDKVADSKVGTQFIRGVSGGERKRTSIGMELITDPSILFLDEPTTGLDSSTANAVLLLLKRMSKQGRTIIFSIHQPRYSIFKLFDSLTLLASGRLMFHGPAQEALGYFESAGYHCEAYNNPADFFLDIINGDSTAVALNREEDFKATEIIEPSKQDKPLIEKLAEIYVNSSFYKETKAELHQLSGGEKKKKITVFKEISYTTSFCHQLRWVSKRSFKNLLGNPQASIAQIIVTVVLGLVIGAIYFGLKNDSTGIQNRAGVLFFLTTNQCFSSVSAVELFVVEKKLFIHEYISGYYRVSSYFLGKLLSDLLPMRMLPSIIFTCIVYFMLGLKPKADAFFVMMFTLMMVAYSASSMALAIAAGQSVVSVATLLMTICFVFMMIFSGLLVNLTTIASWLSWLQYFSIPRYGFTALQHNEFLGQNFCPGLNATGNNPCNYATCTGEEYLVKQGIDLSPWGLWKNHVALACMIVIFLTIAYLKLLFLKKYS
Protocol: Cell monolayers were grown to confluence on collagen-coated, microporous, polycarbonate membranes in 12-well Costar® plates. […] The Transwell permeability assay buffer was Hanks' balanced salt solution (HBSS) containing 10 mM HEPES and 15 mM glucose at a pH of 7.4. The buffer in the receiver chamber also contained 1% bovine serum albumin. […] Cell monolayers were dosed on the apical side (A-to-B) or basolateral side (B-to-A) and incubated at 37° C. with 5% CO2 in a humidified incubator. Samples were taken from the donor and receiver chambers at 120 minutes. Each determination was performed in duplicate. The flux of lucifer yellow post-experimentally was also measured for each monolayer to ensure no damage was inflicted to the cell monolayers during the flux period. All samples were assayed by LC-MS/MS using electrospray ionization. […] The apparent permeability (Papp) and percent recovery were calculated as follows:
Where, dCr/dt is the slope of the cumulative concentration in the receiver compartment versus time in μM s^−1; Vr is the volume of the receiver compartment in cm^3; Vd is the volume of the donor compartment in cm^3; A is the area of the insert (1.13 cm^2 for 12-well Transwell); CA is the average of the nominal dosing concentration and the measured 120 minute donor concentration in μM; CN is the nominal concentration of the dosing solution in μM; Cr^final is the cumulative receiver concentration in M at the end of the incubation period; and Cd^final is the concentration of the donor in μM at the end of the incubation period.
Efflux ratio (ER) is defined as Papp (B-to-A)/Papp (A-to-B).

[2] = tested on: Agrin and its downstream targets; assay: Western blots of Agrin and downstream targets in pancreatic cancer cell lines; assay type: cell-based, human
Protocol: For frozen prostate cancer tissue specimens and their adjacent non-tumor tissues (if any) obtained from Roswell Park pathology network, 30-50 mg of each tissue in a 1.5 Eppendorf tube containing 500 μL of 2×SDS lysis buffer containing Tris pH 6.8+4% SDS+10% Glycerol were homogenized through ultrasound treatment for 10-15 second per time with 3-6 times until tumor tissue was lysed. After all tissues were processed, 1.5 mL tubes were centrifuged at 13,000 rom in a microcentrifuge for 1-2 min and then the supernatant in each tube was transferred into a new 1.5 mL tube for protein concentration measurement (refer to the section of “Studies with Human patient tumor specimens” for more information). Twenty to fifty μg total protein from each sample (cell lysis or tumor tissue lysis) were heated at 95° C. for 5 minutes after mixing with equal volumes of 2× SDS loading buffer. […] The membrane was then blocked in 5% skim milk in TBS-T buffer (20 mM Tris/HCl pH 7.5, 0.137 M NaCl, and 0.1% Tween 20) at room temperature for 2-3h. […] Proteins of interest were detected using Western Lightning ECL-Plus (Perkin Elmer, Waltham, MA) and visualized by various times (3-120 seconds) of exposure. Actin, tubulin and/or GAPDH were detected as the internal control to normalize total protein loading for each sample.

[3] = tested on: human hepatocytes; assay: Cell viability (MTS) after CYP induction treatment
Protocol: Vehicle controls were treated in parallel with hepatocyte culture medium. […] (2) After the CYP induction treatment, the cells were used for a cell viability assay. […] The absorbance of formazan, which is proportional to the number of viable cells, was measured spectrophotometrically using the CellTiter 96 AQueous ONE Solution Cell Proliferation Assay. […] (3) Total RNA was isolated from the treated cells using the RNeasy mini kit (Qiagen, Valencia, CA, USA) and treated with RNase-free DNase (Qiagen) following the manufacturer's protocols. The concentration of RNA was determined using a Qubit Fluorometer with a Qubit RNA HS assay kit (Invitrogen). cDNA was synthesized from up to 1 μg of the total RNA harvested from the cells using a QuantiTect RT kit (Qiagen). Analysis of gene expression by qPCR was performed using the LightCycler 480 System (Roche Diagnostics Corporation, Indianapolis, IN, USA).

[4] = assay type: physicochemical; settings: solid state of powder
Protocol: Laboratory XRPD patterns from the samples will be collected at 25° C. The diffraction data were collected over the angular range of 2θ=3°−40° with a step size of 2θ=0.02° and accounting time of 0.12 s/step.

[5] = Liver microsome stability; settings: for microsomal CLint at 0.5 μM / half-life at 0.5 μM: both; for microsomal CLint at 0.5 μM: CLint (intrinsic clearance); for microsomal CLint at 0.5 μM / half-life at 0.5 μM / % Remaining of Initial (n = 1): human liver microsome

CCC1(O)C(=O)OCc2c1cc1n(c2=O)Cc2cc3cc4c(cc3nc2-1)OCO4 (stereo not drawn) [FL118]
BCRP Substrate Classification [1]: Negative (ER≥2.0 without Ko143, and reduced by <50% with Ko143: Negative)
DDX5, Agrin, YAP1, Integrin expression and FAK phosphorylation ([2]; Mia Paca-2, Panc-1, BxPC-3, 10, 100, 500 nM): inhibits the expression of DDX5, Agrin, YAP1 and Integrin as well as the FAK phosphorylation status
Agrin and YAP1 proteins ([2]; Panc-1 cells): inhibits Agrin and YAP1 proteins
% of Vehicle-treated Cells ([3]; donor 1, 0.01 μM): 91%
Formazan Absorbance Mean ([3]; donor 1, 0.01 μM): 1.48
% of Vehicle-treated Cells ([3]; donor 1, 0.1 μM): 73%
Formazan Absorbance Mean ([3]; donor 1, 0.1 μM): 1.20
% of Vehicle-treated Cells ([3]; donor 1, 1 μM): 31%
Formazan Absorbance Mean ([3]; donor 1, 1 μM): 0.512
cytotoxicity ([3]; donor 1, 0.1 and 1 μM): dose-dependent cytotoxicity
% of Vehicle-treated Cells ([3]; donor 2, 0.001 μM): 103%
Formazan Absorbance Mean ([3]; donor 2, 0.001 μM): 1.53
% of Vehicle-treated Cells ([3]; donor 2, 0.005 μM): 101%
Formazan Absorbance Mean ([3]; donor 2, 0.005 μM): 1.51
% of Vehicle-treated Cells ([3]; donor 2, 0.01 μM): 99%
Formazan Absorbance Mean ([3]; donor 2, 0.01 μM): 1.48
cytotoxicity ([3]; donor 2, 0.001 to 0.01 μM): No cytotoxicity
% of Vehicle-treated Cells ([3]; donor 3, 0.025 μM): 94%
Formazan Absorbance Mean ([3]; donor 3, 0.025 μM): 1.63
% of Vehicle-treated Cells ([3]; donor 3, 0.05 μM): 104%
Formazan Absorbance Mean ([3]; donor 3, 0.05 μM): 1.80
cytotoxicity ([3]; donor 3, 0.025 and 0.05 μM): did not show cytotoxicity
XRPD [4]: Weak crystal
microsomal CLint at 0.5 μM ([5]; human, microsomes, calculated (in parentheses)): 18.6 µL/min/mg
microsomal CLint at 0.5 μM ([5]; human, microsomes, bound): < 23.1 µL/min/mg
half-life at 0.5 μM ([5]; human, microsomes, calculated (in parentheses), calculated half-life longer than the experiment): 1.25 h
half-life at 0.5 μM ([5]; human, microsomes, expressed as > the longest incubation time (60 min)): > 1 h
% Remaining of Initial (n = 1) ([5]; 0 min): 100%
% Remaining of Initial (n = 1) ([5]; 10 min): 93%
% Remaining of Initial (n = 1) ([5]; 20 min): 82%
% Remaining of Initial (n = 1) ([5]; 30 min): 76%
% Remaining of Initial (n = 1) ([5]; 60 min): 58%
half-life ([5]; human, microsomes): long half-life
